A short description of series [1]: UV-Vis absorption and fluorescence spectra. The format is physicochemical. The conditions noted are these: dichloromethane; for fluorescence maximum: excitation at 550 nm. As to the method:
Because the pigments noted above are photoactive compounds, it was important to determine the effect of the sulfur atom on their spectral characteristics.
Absorption and fluorescence spectra were recorded on Shimadzu UV1800 UV/VIS (Shimadzu, Duisburg, Germany) and Shimadzu RF-5301 (Shimadzu, Duisburg, Germany) spectrophotometers in quartz cells (0.4 × 1.0 cm) with an optical path length of 1 cm (spectral slit width 1 nm), using dichloromethane, acetone, and water as the solvents. Absorption spectra were recorded in the range of 350–750 nm. Fluorescence spectra were recorded in the range of 600–800 nm (excitation wavelength 550 nm), using dichloromethane, acetone, and water as the solvents. The fluorescence quantum yield was determined by the relative method. A solution of purpurin-18 in toluene was used as the standard. Both ^1H and ^13C NMR spectra were recorded on a Bruker DPX 300 spectrometer (Bruker, Alzenau, Germany). NMR samples were prepared in d6-acetone and CDCl3. Matrix-assisted laser desorption/ionization (MALDI) mass spectra were recorded on a Bruker Ultraflex TOF/TOF spectrometer (Bruker, Alzenau, Germany), with 2,5-dihydroxybenzoic acid as the matrix. Elemental analysis was performed on a Vario Micro Cube analyzer (Elementar, Berlin, Germany).

Series [2] can be described thus: Chemical stability in 4% aqueous micellar solution of Kolliphor ELP (absorption band intensity vs time). The format is physicochemical. From the text: The stability of pyropheophorbide a 13^1-thioketone (6) in 4% aqueous micellar solution of Kolliphor ELP over time was studied at a neutral pH by monitoring the variation in the Q2 band intensity in the absorption spectra of the sample.
At the next step, we studied the chemical stability of complex 7 obtained in Kolliphor ELP aqueous micellar solutions vs. time at various pH values based on the variation in the intensity of the Qy band in the EAS of the samples (Figure 4).
A solution of compounds (4) or (7) in dichloromethane (1–2 mL) was added dropwise with continuous argon bubbling to a freshly prepared 4% aqueous solution of Kolliphor ® ELP (5 mL) heated to 45 °C. Bubbling was continued until strong foaming started. A clear dark-red solution with a concentration of 0.25 mg/mL was obtained, which was then successively filtered through a 0.45 µm PTFE filter and a 0.22 µm PTFE filter. The concentrations of the resulting micellar solutions were monitored spectrophotometrically.

Series [3] has as its system S37 murine sarcoma cell line. The experiment in a line: Photoinduced (combined) cytotoxicity, MTT assay after irradiation. In kind it is cell-based. The conditions noted are these: S37 cells; for IC50: 4 h PS incubation. The method, then: To estimate the combined effect (photoinduced and chemocytotoxic) of compound (4) and platinum complex (7), a two-step experiment was designed: incubation of cells with PS for 4 h and irradiation and subsequent incubation for 48 or 72 h followed by estimation of cell survival by the MTT assay.
The S37 murine sarcoma cell line (collection of the N.N. Blokhin Research Institute of Oncology) was used to estimate photoinduced activity and cytotoxicity.
Cells were cultured in DMEM medium (PanEco, Russia) with addition of 2 mM L-glutamine (PanEco, Moscow, Russia) and 10% fetal calf blood serum (FCS) (Corning, New York, NY, USA) in 25 cm^2 culture vials (Corning, USA) at 37 °C in a humid atmosphere containing 5% carbon dioxide. Upon passivation, the Versene solution (PanEco, Russia) was used to remove the cells from the substrate. For in vitro studies, cells of the 3rd and 4th passages were used with an optimal seeding concentration of 6 × 10^4 cells/mL.
The concentrations of the solutions obtained were 0.6 mg/mL for compound (4) and 0.1 mg/mL for compound (7). All the volumes obtained were filtered through a Millipore membrane filter with a pore size of 0.22 μm. Next, the samples were diluted in 24-well plates (Corning, USA) on the cell-culturing medium. The final concentration of the substances ranged from 32 ng/mL to 20 μg/mL.
To perform the experiments, S37 tumor cells were seeded into 96-well plates in the amount of 6 × 10^3 cells per well in a 100 μL volume. Exposure was performed in the exponential phase of cell growth 24 h after seeding. Solutions of compounds in the complete culture medium were added to the wells at final concentrations of 32 ng/mL to 20 μg/mL, in triplicate. The time of cell incubation with compounds before irradiation was 4 h. The culture medium was used as the blank. Light exposure was performed with a halogen lamp through a KS-10 broadband filter (λ > 620 nm). The light dose was 10 J/cm^2. After light exposure, the plates with cells were placed in a CO2 incubator for 24, 48, or 72 h.
Cell survival was estimated using the colorimetric MTT test (24 and 72 h after exposure), which is based on the ability of dehydrogenases in living cells to convert yellow water-soluble 3-(4-5-dimethyl-[…]-2)-2,5-diphenyltetrazolium bromide to blue crystals of formazan, whose amount is measured spectrophotometrically.
Before the test, cells were washed from cytotoxic agents. Then, 0.5% solution of 3-(4,5-dimethylthiazolyl-2)-2,5-diphenyltetrazolium bromide was added to the wells and the system was incubated for 3 h under standard conditions. After incubation, the medium with the MTT-reagent was removed and formazan crystals were dissolved for 10 min with dimethyl sulfoxide. Optical density was measured on a Multiscan FC multichannel plate photometer (Thermo scientific) at 550 nm.
The growth inhibition (GI) of cells in a culture was calculated using the following formula:GI(%) = [ODk − ODo/ODk)] × 100%, where ODo is the optical density of formazan in the test wells and ODk is the optical density of formazan in the control wells.
Quantitative parameters were calculated using the results of three independent tests.
In general terms: Formazan colour is commonly taken as a measure of viable cells.

Series [4] is described as follows: Chemical stability in lysate of S37 sarcoma cells (Qy band intensity). The format is physicochemical. As to conditions: Cell lysate S37 (pH = 7.8). As to the method: (§1) The chemical stability of compounds 4 and 7 was also studied in the lysate of S37 sarcoma cells (pH = 7.8), as well as in the cell culture medium at different pH values. The stability was assessed by the change in the intensity of the Qy bands as described above.

The nature of series [5]: Chemical stability in cell culture medium at different pH (Qy band intensity). The format is physicochemical. As to the method: as §1
The subject of series [6] is S37 murine sarcoma cell line. Nature of the series: Dark cytotoxicity, MTT assay. In kind it is cell-based. As to conditions: S37 cells; 72 h incubation of compounds with cells, no irradiation, MTT.
Method: To estimate cytotoxicity, cells were incubated with the substances for 72 h under dark conditions in a CO2 incubator.
Cell survival was estimated using the colorimetric MTT test (24 and 72 h after exposure), which is based on the ability of dehydrogenases in living cells to convert yellow water-soluble 3-(4-5-dimethyl-tetrazolyl-2)-2,5-diphenyltetrazolium bromide to blue crystals of formazan, whose amount is measured spectrophotometrically.

Take `C=Cc1c(C)c2cc3nc(c4c5[nH]c(cc6nc(cc1[nH]2)C(C)=C6CC)c(C)c5C(=S)C4C(=O)OC)[C@@H](CCC(=O)OC)[C@@H]3C` (stereo partly drawn) [Compound 5]: in series [1], the “long-wave absorption maximum (Q2 band)” value was determined as 706 nm and the fluorescence maximum is on record as 719 nm.

Take `C=Cc1c(C)c2cc3nc(c4c5[nH]c(cc6nc(cc1[nH]2)C(C)=C6CC)c(C)c5C(=S)C4)[C@@H](CCC(=O)OC)[C@@H]3C` [Compound 6, Pyropheophorbide a 13^1-Thioketone]: in series [1], the “long-wave absorption maximum (Q2 band)” value was 708 nm and the fluorescence maximum was 723 nm. Also, the “decrease of Q2 band” value in series [2] (4% Kolliphor ELP micellar solution, neutral pH, after 3 h) is “more than 50%”. Also, in series [2] (4% Kolliphor ELP micellar solution, neutral pH, after 24 h), the “conversion of thioketone to pyropheophorbide a (4)” value was “completely converted”.

As for `C=Cc1c(C)c2cc3nc(c4c5[nH]c(cc6nc(cc1[nH]2)C(C)=C6CC)c(C)c5C(=[S+][Pt-2]([NH3+])([NH3+])[Cl])C4)[C@@H](CCC(=O)OC)[C@@H]3C.O=[N+]([O-])[O-]` (stereo partly drawn) [Compound 7, Platinum Complex of Pyropheophorbide a 13^1-Thioketone], the IC50 (usually the point on the concentration scale where inhibition reaches its midpoint) stood at 0.478 ± 0.009 µM in series [3] (irradiation at 10 J/cm^2, MTT after 24 h, read-out: IC50, Photoinduced cytotoxicity); 0.146 ± 0.007 µM in series [3] (irradiation at 10 J/cm^2, MTT after 48 h, read-out: IC50, Combined cytotoxicity); 0.098 ± 0.005 µM in series [3] (irradiation at 10 J/cm^2, MTT after 72 h, read-out: IC50, Combined cytotoxicity); 0.271 ± 0.007 µM in series [6]. In addition, the “increase of photocytotoxicity on increasing incubation time after irradiation” value in series [3] (from 24 h to 72 h after irradiation) was found to be 5 fold. Further, the “Content, %” value in series [4] (0 min) came to 100%; in series [4] (4 h), 89%; in series [4] (24 h), 84%; in series [4] (72 h), 79%; in series [5] (pH 4, 0 min), 100%; in series [5] (pH 4, 4 h), 25%. Moreover, the “Content, %” value was found to be 17% in series [5] (pH 4, 24 h); 11% in series [5] (pH 4, 72 h); 100% in series [5] (pH 7, 0 min); 97% in series [5] (pH 7, 4 h); 94% in series [5] (pH 7, 24 h); 91% in series [5] (pH 7, 72 h). Besides, the “Content, %” value worked out at 100% in series [5] (pH 9, 0 min); 87% in series [5] (pH 9, 4 h); 75% in series [5] (pH 9, 24 h); 65% in series [5] (pH 9, 72 h). For the same compound, the “Intensity at 675 nm” value in series [4] (0 min) was found to be 0.913; in series [4] (4 h) it was 0.8126; in series [4] (24 h) it was 0.7669; in series [4] (72 h), 0.7213; in series [5] (pH 4, 0 min), 0.913; in series [5] (pH 4, 4 h), 0.2282. In addition, the “Intensity at 675 nm” value in series [5] (pH 4, 24 h) is on record as 0.1552; in series [5] (pH 4, 72 h), 0.1004; in series [5] (pH 7, 0 min) it was 0.913; in series [5] (pH 7, 4 h), 0.8856; in series [5] (pH 7, 24 h), 0.8582; in series [5] (pH 7, 72 h), 0.833. Further, the “Intensity at 675 nm” value in series [5] (pH 9, 0 min) is recorded as 0.913; in series [5] (pH 9, 4 h), 0.7943; in series [5] (pH 9, 24 h), 0.6847; in series [5] (pH 9, 72 h), 0.5277. Also, in series [2] (Kolliphor ELP micellar solution, acid, pH = 4), the “chemical stability (Qy band)” value was “hypsochromic shift in the Qy band to the 666 nm region”. Moreover, the “chemical stability (Qy band intensity)” value in series [2] (Kolliphor ELP micellar solution, alkaline, pH = 9) is “a precipitate formed and the intensity of the Qy absorption band decreased”; in series [2] (Kolliphor ELP micellar solution, pH = 7), “remained stable for 24 h”.

In the case of “Pheophorbide a [Compound 3, reference compound]”, in series [1], the “long-wave absorption maximum (Q2 band)” value was 666 nm and the fluorescence maximum is reported as 680 nm.

Source of the values: PMC10222512, “Thiocarbonyl Derivatives of Natural Chlorins: Synthesis Using Lawesson’s Reagent and a Study of Their Properties” (Molecules, 2023).
